# Reference: patent EP0218400A1, “Assay methods for chemotherapeutic agents” (DAMON BIOTECH, INC., priority 1985, dated 1987)
# What was measured:
# [1] = tested on: human lung carcinoma A549 cells; assay: In vivo susceptibility of encapsulated A549 cells; details: i.v. days 2, 5, 9; for No. of tumor cells per 1 ml of capsules / percent Inhibition: Adriamycin 6, BCNU 20, CY 100 mg/kg
# Protocol: (§1) In the experiments that follow, the drugs and other agents tested were administered to the host animal by injection at the various times called for in the protocol being tested. At various periods after treatment, the mice were killed by cervical dislocation. The peritoneal cavity of each mouse was washed with PBS or medium and floating microcapsules were aspirated using a large bore plastic Pasteur pipette. Microcapsules were transferred to 15 ml tubes and washed 3 to 4 times with PBS to remove host peritoneal cells. The washed microcapsules were aspirated into 1 ml serological pipettes, allowed to sediment, and the volume of packed microcapsules was determined. Microcapsules were then transferred to a glas dounce homogenizer (7 ml volume) and disrupted with 3 strokes of an A-tolerance plumger. Cells suspensions were filtered through nylon mesh to remove the disrupted membranes. The suspensions containing tumor cells were centrifuged and the pellet was resuspended in 0.25 to 0.5 ml of complete medium. After mixing equal volumes of cell suspension and trypan blue, viable cell counts were determined using a hemocytometer.
# (§2) The number of tumor cells per 1 ml of packed microcapsules was determined as follows: a = ? where b = total number of tumor cells in the suspension, and c = total volume of microcapsules used for the preparation of this suspension.
# (§3) By comparing the number of tumor cells in 1 ml of microcapsules derived from non-treated and drug-treated mice, the percent inhibition of tumor cell growth was calculated: [formula] where ac = number of tumor cells from the non-treated control microcapsules, and ae = number of tumor cells from the drug treated microcapsules.
# The sensitivity of human lung carcinoma A549 cells to the drugs was assessed 12 and 14 days after transplantation of encapsulated tumor cells. The treatments were applied i.v. 2, 5 and 9 days after microcapsule transplantation (Table 5).
# [2] = tested on: human colon adenocarcinoma (HT-29) cells; assay: In vivo growth of encapsulated HT-29 cells in C57BL/6 mice; details: for inhibition at 20 mg/kg: Mus musculus; for No. of cells per capsule / Total No. of tumor cells: 4 days
# Protocol: as §1, §2, §3
# A second human cancer cell line was also used to further analyze in vivo effects of different drugs on the growth of tumors. Encapsulated human colon adenocarcinoma (HT-29) cells were again transplanted into C57BL/6 mice and various drugs were administered after 3 days either by intravenous or by intraperitoneal injection. Animals were sacrificed after 4 days and number of cells per capsule were counted to calculate inhibition rates for the various treatment procedures. […] In fact, 5-FU is a preferred chemotherapeutic agent for patients with gastrointestinal malignancies.
# LOX Melanoma cells = details: i.v.; Adriamycin 6, BCNU 20, CY 100, 5-Fu 60 mg/kg; survival during 3 months of observation; nude mice; cited from earlier work
# Original P388 cells = assay: In vivo growth of encapsulated original P388 lymphoma cells in nude mice
# Protocol: as §1, §2, §3
# (§4) Since drug-resistance is one of the most important causes of failure in chemotherapy, it is crucial that a predictive assay be able to distinguish between effective and non-effective drugs for particular tumors. […] One day later the mice received by i.v. administration Adriamycin (6 mg/kg), Vinblastin (1 mg/kg) or Cyclophosphamide (100 mg/kg). Five days after administration some of the mice were sacrificed, the microcapsules were recovered and the numbers of tumor cells inside the capsules were determined. The remaining mice received a second administration and the microcapsules were recovered from the remaining mice 3 days afterwards. The results are shown in Table 7 and correlate well with the known characteristics of P388 cell line and its variant.
# MOLT-4 lymphoma cells = assay: In vivo inhibition of encapsulated Molt-4 lymphoma growth in C57BL/6 mice; parameters: species or system human
# Protocol: as §1, §2, §3
# MOLT-4 lymphoma cells were also used in an in vivo assay. As before, the MOLT-4 cells were encapsulated and transplanted i.p. into C57BL/6 mice. On day 1 following the transplantation of the encapsulated cells, the mice were treated i.v. intravenous (i.v.) with BCNU, adriamycin or cyclophosphamide (CY). This approach allowed the testing of cyclophosphamide (CY) which is inefficient in vitro because it must be metabolized to obtain an active cytotoxic derivative. Ten days after transplantation, the encapsulated cells were retrieved and the tumor cells contained therein were counted. […]
# [3] = tested on: Human T cell lymphoma (MOLT-4) cells; assay: In vitro drug pretreatment of encapsulated cells, then growth in the peritoneal cavity of mice; assay type: in vivo; details: for No. of tumor cells per capsule: then 7 days i.p. in C57BL/6 mice
# Protocol: The encapsulated tumors are preferably incubated at 37° C in medium for 1 to 2 hours. A 25 percent (v/v) suspension can then be prepared (preferably without bovine serum). The suspension can be inoculated in the peritoneal cavity of the host animal (i.e., with a 16 gauge needle).
# as §1, §2, §3
# Human T cell lymphoma (MOLT-4) cells were encapsulated according to the procedures described above and incubated in vitro in RPMI I640 medium supplemented with 10 percent fetal calf serum, glutamine and antibiotics for one hour of 37°C. During incubation they were exposed to various concentrations of 1,3-B (2-chloroethyl)-1-nitrosourea (BCNU), 5-fluorouracil (5-FU) and adriamycin. The microcapsules were then washed and implanted into the peritoneal cavity (i.p.) of C57BL/6 mice (Animal Production Area NCI-Frederick Cancer Research Facility) using #18-14 needles. After seven days the mice were sacrificed and their peritoneal cavities were washed with PBS and aspirated to collect the microcapsules in a Pasteur pipette. The microcapsules were washed several times from the host peritoneal cells. The microcapsules from the individual mice were counted by transferring them into wells of a 96 well microplate. Using an inverted microscope, the numbers of microcapsules in each well were counted. Each well was washed out and microcapsules were transferred into the glass homogenizer.
# Microcapsules were then disrupted, and the suspension was filtered, centrifugated and reconstituted with PBS. The concentration and total number of cells were counted using a hemocytometer.
# P388 Resistant Cells = assay: In vivo growth of encapsulated adriamycin-resistant P388 lymphoma cells in nude mice
# Protocol: as §1, §2, §3, §4
# [4] = i.p. 3 days after transplantation, 5-Fu 150 mg/kg, CY 250 mg/kg, Adriamycin 20 mg/kg
# [5] = i.v. 20 mg/kg 3 days after transplantation
# [6] = 5 + 3 days after treatment (3 days after second administration), Adriamycin 6, Vinblastin 1, Cyclophosphamide 100 mg/kg i.v.
# [7] = 5 days after treatment, i.v. one day after inoculation, Adriamycin 6, Vinblastin 1, Cyclophosphamide 100 mg/kg
# [8] = i.v. on day 1, Adriamycin 10 mg/kg, BCNU 100 mg/kg, CY 200 mg/kg, capsules retrieved ten days after transplantation
compound,measurement,setting,value
COc1cccc2c1C(=O)c1c(O)c3c(c(O)c1C2=O)C[C@@](O)(C(=O)CO)C[C@@H]3O[C@H]1C[C@H](N)[C@H](O)[C@H](C)O1 [Adriamycin],No. of tumor cells per 1 ml of capsules,[1]; 12 days after transplantation,9.0 x 10^5
same,percent Inhibition,[1]; 12 days after transplantation,85%
same,No. of tumor cells per 1 ml of capsules,[1]; 14 days after transplantation,13.5 x 10^5
same,percent Inhibition,[1]; 14 days after transplantation,84%
same,reduction of the numbers of tumor cells (in words),[1],more efficient in this respect than CY
same,inhibition at 20 mg/kg,"[2]; HT-29, ip",45%
same,inhibition at 20 mg/kg,"[2]; HT-29, iv",50%
same,No. of cells per capsule,[2]; [4],1.1 x 10^4
same,Total No. of tumor cells,[2]; [4],5.8 x 10^5
same,No. of cells per capsule,[2]; [5],1 x 10^4
same,Total No. of tumor cells,[2]; [5],1.2 x 10^6
same,% survived mice transplanted with nonencapsulated tumor cells,LOX Melanoma cells,33%
same,% Inhibition,Original P388 cells; [6],92%
same,No. cells/ml,Original P388 cells; [6],4 x 10^6
same,% Inhibition,Original P388 cells; [7],64%
same,No. cells/ml,Original P388 cells; [7],8 x 10^6
same,inhibition at 10 mg/kg,"MOLT-4 lymphoma cells; Mus musculus, MOLT-4, iv, i.v. on day 1, Adriamycin 10 mg/kg, BCNU 100 mg/kg, CY 200 mg/kg, capsules retrieved ten days after transplantation",91.3%
same,reduction of the number of viable tumor cells in the capsules (in words),"MOLT-4 lymphoma cells; i.v. on day 1, ten days after transplantation",more effective than BCNU
same,No. of cells per capsule,MOLT-4 lymphoma cells; [8],237
same,Total No. of tumor cells,MOLT-4 lymphoma cells; [8],8 x 10^4
same,No. of tumor cells per capsule,[3]; 2.5 µg/ml in vitro for one hour,2 x 10^3
same,No. of tumor cells per capsule,[3]; 10 µg/ml in vitro for one hour,10
same,inhibition at 2.5 µg/mL,"[3]; Mus musculus, MOLT-4, ip",60%
same,inhibition at 10 µg/mL,"[3]; Mus musculus, MOLT-4, ip",100%
same,No. cells/ml,P388 Resistant Cells; [6],32 x 10^6
same,No. cells/ml,P388 Resistant Cells; [7],18 x 10^6
same,inhibiting the growth of the drug-resistant variant (in words),"P388 Resistant Cells; Adriamycin 6 mg/kg, Vinblastin 1 mg/kg i.v.",Neither Adriamycin nor Vinblastin in the doses administered was effective
